Results: US6440954B1, “Inhibition of vascular smooth muscle cell proliferation” (President and Fellows of Harvard College, priority 1997, dated 2002)

What was measured:
RASMCs [1] = assay: [3H]thymidine incorporation in RASMCs; type: cell-based, rat
Description: (§1) RASMCs were harvested from the thoracic aortas of adult male Sprague-Dawley rats (200-250 g) by enzymatic dissociation as described (Tsai et al., Proc. Natl. Acad. Sci. USA 91, 6369-6373 (1994)). The cells were grown in DMEM supplemented with 10% FCS, penicillin (100 U/ml), streptomycin (100 μg/ml), glutamine ([…]), and 25 mM Hepes (pH 7.4) in a humidified incubator (37° C., 5% CO2). HASMCs (Clonetics, San Diego) were grown in M199 medium (GIBCO BRL, Grand Island, N.Y.) supplemented with 20% FCS, penicillin (100 U/ml), streptomycin (100 μg/ml), and 25 mM Hepes (pH 7.4). Cells from passages 5-9 were used. RASMCs and HASMCs were cultured in 24-well plates containing an appropriate growth medium (DMEM plus 10% FCS for RASMCs, and M199 plus 20% FCS for HASMCs). After the cells had grown to 70-80% confluence, they were rendered quiescent by incubation for 72 h in DMEM (for RASMCs) or M199 (for HASMCs) containing 0.4% charcoal/dextran-treated FCS (FIGS. 2a and 2d) or 0.4% calf serum (CS) (FIGS. 2b and 2c). Phenol red-free DMEM was used in the experiments with estradiol (FIG. 2a). […] After incubation, the cells were washed with Dulbecco's PBS, fixed in cold 10% TCA for at least 2 h, and then washed with 95% ethanol. Incorporated [^3H]thymidine was extracted in 0.2 N NaOH and measured in a liquid scintillation counter.

HASMCs = assay: [3H]thymidine incorporation in HASMCs; type: cell-based, human; conditions: quiescent HASMCs, 24 h incubation, FIG. 2d
Description: as §1

RASMCs [2] = assay: Cell counting (RASMC proliferation); type: cell-based, rat; conditions: FIG. 3b
Description: RASMCs (2×10^4) were seeded onto 6-well plates and grown in DMEM supplemented with 10% FCS. […] Medium and progesterone were changed daily. Cells were counted in a Coulter apparatus at various times after their removal from the plates with trypsin-EDTA.

[3] = tested on: cyclin A, E, B and D1 mRNAs in RASMCs; assay: Northern analysis of cyclin mRNAs in RASMCs; type: cell-based, rat; conditions: 24 h after treatment, FIG. 4
Description: Total RNA from RASMCs was prepared from cultured RASMCs by guanidinium isothiocyanate extraction and centrifugation through cesium chloride. […] RNA samples (20 μg/lane) were electrophoresed on 1.3% formaldehyde-agarose gel, and then transferred onto nitrocellulose filters. The filters were hybridized to ^32P-labeled human cyclin probes as described (Lee et al., J. Biol. Chem. 266, 16188-16192 (1991); Lee et al., J. Biol Chem. 269, 12032-12039 (1994)). To normalize RNA content of each lane, the filters were washed at 80° C. in 50% formamide solution to remove the cyclin probes, and then hybridized with oligonucleotide probes for 28S RNA. Hybridized filters were washed in 30 mM NaCl, 3 mM sodium citrate, and 0.1% sodium dodecyl sulfate at 55° C. Radioactive signals were visualized on Kodak XAR film or PhosphorImager screens (Molecular Dynamics, Inc. Sunnyvale, Calif.).

## CC(=O)[C@H]1CC[C@H]2[C@@H]3CCC4=CC(=O)CC[C@]4(C)[C@H]3CC[C@]12C [progesterone]
RASMCs [1]; RASMCs, progesterone 500 nM, FIG. 2c
  effect of serum (FCS) concentration on progesterone-induced inhibition of [3H]thymidine incorporation: counteracted by serum in a dose-dependent manner
RASMCs [1]; quiescent RASMCs, 24 h incubation, FIG. 2a/2b
  effect on [3H]thymidine incorporation in RASMCs: inhibited
HASMCs
  effect on [3H]thymidine incorporation in HASMCs: dose-dependent inhibition
RASMCs [2]
  reduction in RASMC cell growth, dose dependence: dose-dependent
[3]
  cyclin A mRNA level: downregulated
  cyclin B mRNA level: did not change
  cyclin D1 mRNA level: did not change
  cyclin E mRNA level: downregulated
